Experimental data as given in US10278942B2 (PELOTON THERAPEUTICS, INC., priority 2015, dated 2019).

These compounds were tested against T1, HIF-2α HIS TAG-PASB Domain (Homo sapiens, UniProt Q99814) (assay: HIF-2α Scintillation Proximity Assay (SPA)). Details: Scintillation Proximity Assay IC50 (nM).
T1 construct: 100 nM HIF-2α HIS TAG-PASB Domain
Type: binding
Method: The total assay volume was about 100 μL in the following configuration: 2 μL compound in 100% DMSO, 88 μL buffer with protein and probe and 10 μL of SPA beads. […] The percent inhibition was determined and IC50 values were calculated using the Dotmatics system based on the following equation: % inhibition=[(high control−sample)/(high control−low control)]×100.

T1 sequence (Q99814 240-350 limits assumed): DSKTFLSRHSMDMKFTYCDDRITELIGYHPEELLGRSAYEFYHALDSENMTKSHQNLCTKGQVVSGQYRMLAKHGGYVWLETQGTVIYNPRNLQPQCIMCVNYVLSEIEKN

| SMILES | IC50 |
| --- | --- |
| COC(=O)c1cc(S(=O)(=O)C(F)(F)F)ccc1Oc1cc(F)cc(Cl)c1 [Compound 121] | > 1000 nM |
| O=S1(=O)c2ccc(Oc3cc(F)cc(Cl)c3)cc2C(O)C1(F)F (stereo not drawn) [Compound 362] | > 1000 nM |

Same assay, conditions: read-out: Scintillation Proximity Assay IC50

| SMILES | IC50 |
| --- | --- |
| CC(Oc1ccc(S(=O)(=O)C(F)(F)F)c2c1CC(F)(F)C2O)C(=O)O (stereo not drawn) [Compound 646] | > 1000 nM |
| CC(=O)N1CCCC(Oc2ccc(S(=O)(=O)C(F)(F)F)c3c2CC(F)(F)C3O)C1 (stereo not drawn) [Compound 627] | > 1000 nM |
| CS(=O)(=O)c1ccc(C(F)(F)CO)c2c1[C@H](O)C(F)(F)C2 [Compound 556] | > 1000 nM |
| OC1c2c(-c3cn[nH]c3)ccc(OCC(F)F)c2CC1(F)F (stereo not drawn) [Compound 684] | > 1000 nM |
| N#Cc1cc(F)cc(Oc2ccc3c(c2C#CCF)C(O)C(F)(F)S3(=O)=O)c1 (stereo not drawn) [Compound 410] | > 1000 nM |
| Cn1cc(-c2ccc(S(=O)(=O)C(F)(F)F)c3c2CC(F)(F)[C@H]3O)cn1 [Compound 566] | > 1000 nM |
| CNCc1c(S(=O)(=O)C(F)(F)F)ccc(Oc2cc(F)cc(Cl)c2)c1Cl [Compound 113] | > 1000 nM |
| O=S(=O)(c1ccc(Cn2nccn2)c2c1[C@H](O)C(F)(F)C2)C(F)(F)F [Compound 535] | > 1000 nM |
| OC1c2c(I)cc(I)c(OCC(F)F)c2CC1F (stereo not drawn) [Compound 667] | > 1000 nM |
| CS(=O)(=O)c1ccc(Nc2cc(F)cc(C#N)c2)c2c1C(O)C(F)(F)C2 (stereo not drawn) [Compound 502] | > 1000 nM |
| CC1(C)CC[C@H](O)[C@@H](c2ccc(S(=O)(=O)C(F)(F)F)c3c2CC(F)(F)[C@H]3O)C1 [Compound 544] | > 1000 nM |
| O=S(=O)(c1cc(C(F)(F)F)ccc1Oc1cc(F)cc(Cl)c1)C(F)(F)F [Compound 129] | > 1000 nM |
| N#Cc1cc(F)cc(Oc2ccc3c(c2C#N)C(O)(C(F)(F)F)CS3(=O)=O)c1 (stereo not drawn) [Compound 450] | > 1000 nM |
| CCOc1ccc(C#N)c2c1CC(F)(F)[C@H]2O [Compound 674] | > 1000 nM |
| NC(=O)Cc1ccc(S(=O)(=O)C(F)(F)F)c2c1CC(F)(F)[C@H]2O [Compound 527] | > 1000 nM |
| CS(=O)(=NC#N)c1ccc(Oc2cncc(C#N)c2)c2c1[C@@H](O)C(F)(F)[C@@H]2F (stereo partly drawn) [Compound 320] | > 1000 nM |
| NCCOc1ccc(S(=O)(=O)C(F)(F)F)c2c1CC(F)(F)C2O (stereo not drawn) [Compound 635] | > 1000 nM |
| O=S(=O)(c1ccc(C2CC2)c2c1C(O)CC2)C(F)(F)F (stereo not drawn) [Compound 512] | > 1000 nM |
| O=S(=O)(c1ccc(Oc2cc(F)cc(Cl)c2)c(Cl)c1Cn1ccnc1)C(F)F [Compound 45] | > 1000 nM |
| O=S(=O)(CF)c1ccc(Oc2cccc3sccc23)c2c1C(O)CC2 (stereo not drawn) [Compound 239] | > 1000 nM |
| O=S(=O)(c1ccc(Oc2ccc3[nH]ncc3c2)c2c1C(O)C(F)(F)C2)C(F)(F)F (stereo not drawn) [Compound 238] | > 1000 nM |
| CC1(O)c2cc(Oc3cc(F)cc(F)c3)ccc2S(=O)(=O)C1(F)F (stereo not drawn) [Compound 425] | > 1000 nM |
| O=C1c2c(C(F)(F)F)ccc(OCC(F)F)c2CC1F (stereo not drawn) [Compound 694] | > 1000 nM |

Further lines, results first:

| IC50 | SMILES |
| --- | --- |
| > 1000 nM | Cc1c(Oc2cc(F)cc(C#N)c2)ccc(S(=O)(=O)C(F)(F)F)c1/C=C/C(=O)NCc1ccccc1 [Compound 149] |
| > 1000 nM | N#CN=S(=O)(c1ccc(Oc2cc(F)cc(C#N)c2)c2c1[C@H](O)[C@H](F)C2)C(F)F (stereo partly drawn) [Compound 297] |
| 50 to 249 nM | C=CCN=S(=O)(c1ccc(Oc2cc(F)cc(C#N)c2)c2c1[C@H](O)C(F)(F)C2)C(F)(F)F (stereo partly drawn) [Compound 308] |
| > 1000 nM | O=S(=O)(c1ccc(NCc2ccco2)c2c1[C@H](O)C(F)(F)C2)C(F)F [Compound 529] |
| 250 to 1000 nM | O=S(=O)(CF)c1ccc(Oc2cc(F)cc(Cl)c2)c(Br)c1 [Compound 137] |
| > 1000 nM | CN1CCC(Oc2ccc(S(=O)(=O)C(F)(F)F)c3c2CC(F)(F)C3O)C1 (stereo not drawn) [Compound 642] |
| > 1000 nM | O=S(=O)(c1ccc(Cn2ccnn2)c2c1[C@H](O)C(F)(F)C2)C(F)(F)F [Compound 536] |
| > 1000 nM | Fc1cc(F)cc(Oc2ncc(Br)c3c2CCC3)c1 [Compound 469, 4-bromo-1-(3,5-difluorophenoxy)-6,7-dihydro-5H-cyclopenta[c]pyridine] |
| > 1000 nM | O=S(=O)(c1ccc(NCc2cccs2)c2c1[C@H](O)C(F)(F)C2)C(F)F [Compound 528] |
| < 50 nM | N#Cc1cc(F)cc(Oc2ccc3c(c2Br)[C@@H](O)C(F)(F)S3(=O)=O)c1 [Compound 347] |
| > 1000 nM | CCOCC1(COc2ccc(S(=O)(=O)C(F)(F)F)c3c2CC(F)(F)[C@H]3O)COC1 [Compound 708] |
| > 1000 nM | CC(C)Oc1ccc(S(=O)(=O)C(F)(F)F)c2c1CCC2O (stereo not drawn) [Compound 592] |
| > 1000 nM | Cc1c(Oc2cc(F)cc(C#N)c2)ccc(S(=O)(=O)C(F)(F)F)c1/C=C/c1nnco1 [Compound 150] |
| > 1000 nM | CS(=O)(=O)c1ccc(Nc2cncc(Cl)c2)c2c1C(O)CC2 (stereo not drawn) [Compound 499] |
| > 1000 nM | CC1CC(Oc2ccc(S(=O)(=O)C(F)(F)F)c3c2CCC3O)CCO1 (stereo not drawn) [Compound 624] |
| > 1000 nM | N#Cc1c(Oc2cc(F)cc(Cl)c2)ccc2c1[C@H](O)CS2(=O)=O [Compound 407] |
| > 1000 nM | O=S(=O)(c1ccc(OCCO)c2c1C(O)CC2)C(F)(F)F (stereo not drawn) [Compound 613] |
| > 1000 nM | CS(=O)(=O)c1ccc(Oc2cc(F)cc(C#N)c2)c2c1C(O)CCC2 (stereo not drawn) [Compound 95] |

| IC50 | SMILES |
| --- | --- |
| > 1000 nM | O=S(=O)(c1ccc(Oc2cc(F)cc(Cl)c2)c(CCO)c1)C(F)(F)F [Compound 127] |
| > 1000 nM | NC1CS(=O)(=O)c2ccc(Oc3cc(F)cc(F)c3)c(C(F)F)c21 (stereo not drawn) [Compound 367] |
| > 1000 nM | CC(C)(C)OC(=O)N1CC(Oc2ccc(S(=O)(=O)C(F)(F)F)c3c2CC(F)(F)[C@H]3O)C1 [Compound 791] |
| > 1000 nM | COC1Cc2c(OCC(F)F)ccc(C(F)(F)F)c2C1O (stereo not drawn) [Compound 668] |
| 250 to 1000 nM | CS(=O)(=O)c1ccc(Oc2cc(F)cc(Cl)c2)c2c1C(O)CC2CO (stereo not drawn) [Compound 281] |
| 250 to 1000 nM | C/C=C/c1c(S(=O)(=O)C(F)F)ccc(Oc2cc(F)cc(C#N)c2)c1C#N [Compound 178] |
| > 1000 nM | CCCc1ccc(S(=O)(=O)C(F)(F)F)c2c1CCC2O (stereo not drawn) [Compound 515] |
| > 1000 nM | COc1ccc(S(C)(=O)=O)c2c1CCC2O (stereo not drawn) [Compound 776] |
| > 1000 nM | O=S(=O)(c1ccc(Oc2ccc(Cl)c(Cl)c2)c(Br)c1)C(F)(F)F [Compound 169] |
| 250 to 1000 nM | C/C(=N\O)c1c(S(=O)(=O)C(F)(F)F)ccc(Oc2cc(F)cc(Cl)c2)c1Br [Compound 106] |
| < 50 nM | NS(=O)(=O)c1ccc(Oc2cncc(F)c2)c2c1[C@H](O)C(F)(F)[C@@H]2F [Compound 341] |
| > 1000 nM | CS(=O)(=O)N1CCC(Oc2ccc(S(=O)(=O)C(F)(F)F)c3c2CC(F)(F)C3O)C1 (stereo not drawn) [Compound 630] |
| 50 to 249 nM | N#Cc1cc(F)cc(Oc2ccc(S(=O)(=O)C(F)(F)F)c3c2CC(F)C3N)c1 (stereo not drawn) [Compound 265] |
| > 1000 nM | CC1(Oc2ccc(S(=O)(=O)C(F)(F)F)c3c2CC(F)(F)[C@H]3O)COC1 [Compound 785] |
| < 50 nM | O[C@H]1c2c(C(F)(F)F)ncc(O[C@H]3C[C@H](F)C3)c2C[C@H]1F [Compound 478] |
| 50 to 249 nM | O=[N+]([O-])c1c(Oc2cccc(Cl)c2)ccc(C(F)(F)F)c1Cl [Compound 204] |
| 50 to 249 nM | N=S1(=O)c2ccc(Oc3cc(F)cc(F)c3)c(Br)c2C(O)C1(F)F (stereo not drawn) [Compound 378] |
